Laboratory results taken from PubChem BioAssay (NCI).
Several values for one entry are separate records, joined by “and”; a condition that tells them apart may be missing. Equal values may be shown once.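 Growth conditions: 96-well plates. Treatment: test compound, 48 hours, 5 concentrations. Analysis: linear interpolation between bracketing concentrations; unreached endpoints set to highest concentration. At the GI50, growth is halved. TGI: concentration producing complete growth inhibition.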

How the values were obtained:
Assay in all cases: NCI tumour cell line growth inhibition, 48 h
SK-MEL-2 melanoma = tested on: SK-MEL-2 melanoma
A498 renal = tested on: A498 renal
LOX IMVI melanoma = tested on: LOX IMVI melanoma
HOP-62 NSCLC = tested on: HOP-62 NSCLC
HCT-15 colon = tested on: HCT-15 colon
SK-MEL-28 melanoma = tested on: SK-MEL-28 melanoma
SNB-75 CNS = tested on: SNB-75 CNS
786-0 renal = tested on: 786-0 renal
SR leukemia = tested on: SR leukemia
OVCAR-8 ovarian = tested on: OVCAR-8 ovarian

| Structure (SMILES) | TGI (SK-MEL-2 melanoma) | TGI (A498 renal) | TGI (LOX IMVI melanoma) | TGI (HOP-62 NSCLC) | TGI (HCT-15 colon) | TGI (SK-MEL-28 melanoma) | TGI (SNB-75 CNS) | TGI (786-0 renal) | TGI (SR leukemia) | TGI (OVCAR-8 ovarian) | GI50 (LOX IMVI melanoma) | GI50 (HOP-62 NSCLC) | GI50 (SNB-75 CNS) | GI50 (SR leukemia) | GI50 (OVCAR-8 ovarian) | GI50 (SK-MEL-2 melanoma) | GI50 (A498 renal) | GI50 (SK-MEL-28 melanoma) | GI50 (HCT-15 colon) [µM] |
| --- | --- | --- | --- | --- | --- | --- | --- | --- | --- | --- | --- | --- | --- | --- | --- | --- | --- | --- | --- |
| C[C@H](CCC1SC1(C)C)C1CCC2(C)C3=C(CC[C@]12C)[C@@]1(C)CC[C@H](O)C(C)(C)C1CC3 (some centres undefined) | > 100 µM | > 100 µM | > 100 µM | > 100 µM | > 100 µM | > 100 µM | > 100 µM | > 100 µM | > 100 µM | > 100 µM | – | – | – | – | – | – | – | – | – |
| COc1cc2c(/C=C3/C(=O)Nc4ccc(Cl)cc43)c(Cl)[nH]c2cc1C | 29.8 µM | 22.9 µM | 6.25 µM | 13.7 µM | 4.7 µM | 14.5 µM | 5.71 µM | 15.4 µM | 0.926 µM | 19.7 µM | – | – | – | – | – | – | – | – | – |
| CN(C)c1ccc(/C=C/c2sc3ccccc3[n+]2C)cc1 | 8.88 µM and 5.81 µM | 26.2 µM and 32.7 µM | 6.87 µM and 3.34 µM | 14.9 µM and > 100 µM | 29.3 µM and 24.2 µM | 15.7 µM and 6.34 µM | – | 14.9 µM and > 100 µM | 8.87 µM and 2.6 µM | 1.17 µM and 6.8 µM | 2.34 µM and 1.11 µM | 3.7 µM and 8.53 µM | 0.35 µM and 2.3 µM | 2.07 µM and 0.268 µM | 0.0955 µM and 0.387 µM | – | – | – | – |
| Cc1ccc2nc(-c3ccc(C(C)(C)C)cc3)oc(=O)c2c1 | 56.7 µM | 62.8 µM | 32.3 µM | 68.4 µM | 54 µM | 62.1 µM | 47.7 µM | 68.2 µM | 59.7 µM | 43.9 µM | – | – | – | – | – | – | – | – | – |
| Nc1nc(Cl)c(Cl)c(NCC2(O)CCC2)n1 | > 100 µM | 97 µM | > 100 µM | > 100 µM | > 100 µM | > 100 µM | > 100 µM | > 100 µM | > 100 µM | > 100 µM | – | – | – | – | – | – | – | – | – |
| CC(=O)OCC1OC(n2c(S)c(C#N)c(-c3ccccc3)c(C#N)c2=O)C(OC(C)=O)C(OC(C)=O)C1OC(C)=O (centres undefined) | > 100 µM and 31.8 µM | > 100 µM and 74 µM | > 100 µM and 31 µM | 52.9 µM and 75.7 µM | > 100 µM | > 100 µM and 62.8 µM | 56.5 µM and 72.4 µM | > 100 µM and 83.4 µM | > 100 µM and 57.7 µM | > 100 µM and 36.2 µM | > 100 µM and 17.2 µM | – | – | > 100 µM and 32.1 µM | > 100 µM and 16.7 µM | > 61.6 µM and 13.6 µM | > 69 µM and 30.3 µM | > 100 µM and 25.7 µM | – |
| CC1(C)COC2=C(C1)C(=O)c1ccccc1C2=O | 3.88 µM | 3.56 µM | 4.22 µM | 3.45 µM | 2.41 µM | 3.11 µM | 3.04 µM | 3.29 µM | 8.37 µM | 1.53 µM | – | – | – | – | – | – | – | – | – |
| COC(=O)C1OC(O[C@H]2CC[C@]3(C)[C@H]4CC=C5[C@@H]6CC(C)(C)CC[C@]6(C(=O)OC6OCC(O)C(O)C6OC6OC(C)C(OC7OCC(O)C(O)C7O)C(OC7OCC(O)(CO)C7O)C6O)[C@H](O)C[C@@]5(C)[C@]4(C)CC[C@H]3C2(C)C)C(O)C(O)C1O (some centres undefined) | 5.82 µM | 3.3 µM | 20.1 µM | 10.1 µM | 22.2 µM | 4.69 µM | 19.5 µM | 20 µM | 6.37 µM | 24.4 µM | – | – | – | – | – | – | – | – | – |
| COC(=O)C1(SC)C2CCC3C2CCC31 (centres undefined) | > 100 µM | > 100 µM | > 100 µM | > 100 µM | > 100 µM | > 100 µM | > 100 µM | > 100 µM | > 100 µM | > 100 µM | – | – | – | – | – | – | – | – | – |
| O=C(SCc1cccc2ccccc12)c1ccc(Cl)cc1 | > 100 µM | > 100 µM | > 100 µM | > 100 µM | > 100 µM | > 100 µM | > 100 µM | > 100 µM | > 100 µM | > 100 µM | – | – | – | – | – | – | – | – | – |
| CCCCCCCCCCCCCCCCNc1ccn(C2CC(O)C(COC(c3ccccc3)(c3ccccc3)c3ccc(OC)cc3)O2)c(=O)n1 (centres undefined) | > 100 µM | > 100 µM | > 100 µM | > 100 µM | > 100 µM | > 100 µM | > 100 µM | > 100 µM | > 100 µM | > 100 µM | – | – | – | – | – | – | – | – | – |
| O=C(Cn1c(C(=O)c2ccccc2)nc2ccccc21)c1ccccc1 | > 100 µM | > 100 µM | > 100 µM | > 100 µM | > 100 µM | > 100 µM | > 100 µM | > 100 µM | > 100 µM | > 100 µM | – | – | – | – | – | – | – | – | – |
| C=C1C(=O)O[C@H]2C[C@@H]1[C@@H](O)[C@H](O)[C@@H](C)CCCC(C)=CCC[C@@]2(C)O | 41.2 µM | > 100 µM | 65 µM | > 100 µM | > 100 µM | 77.7 µM | > 100 µM | 52 µM | > 100 µM | – | – | – | – | – | – | – | – | – | – |
| COc1cc(C(C)O)c[n+](CCC2CNc3ccccc32)c1 (centres undefined) | > 100 µM | > 100 µM | > 100 µM | > 100 µM | > 100 µM | – | > 100 µM | > 100 µM | > 100 µM | > 100 µM | – | – | – | – | – | – | – | – | – |
| COc1nc2ccc(COc3ccc(C(=O)O)cc3)cc2nc1OC | > 100 µM | > 100 µM | > 100 µM | > 100 µM | > 100 µM | > 100 µM | 53.4 µM | > 100 µM | > 100 µM | > 100 µM | – | – | – | – | – | – | – | – | – |
| COC(=O)Nc1nc2ccc(S(=O)(=O)N3CCOCC3)cc2[nH]1 | > 100 µM | > 100 µM | > 100 µM | > 100 µM | > 100 µM | > 100 µM | > 100 µM | > 100 µM | > 100 µM | > 100 µM | – | – | – | – | – | – | – | – | – |
| CCCCCCCCCCCCCC[n+]1ccc(C)cc1 | 2.83 µM | 12.6 µM | 1.36 µM | 2.61 µM | 22.4 µM | 3.09 µM | 2.37 µM | – | 2.67 µM | – | 0.35 µM | 1.27 µM | 0.806 µM | 0.581 µM | – | 1.33 µM | 2.93 µM | 1.44 µM | 4.01 |
